# Assay results reported in publication PMC10096180, “Half-Sandwich Type Platinum-Group Metal Complexes of C-Glucosaminyl Azines: Synthesis and Antineoplastic and Antimicrobial Activities” (Molecules, 2023).
# pIC50: −log10 of the molar value. Where two headings read alike, the source gives them in different places.
# Legend:
# [1] = system: A2780 cells; test: MTT reduction assay, early toxicity, 4 h treatment; assay type: cell-based
# Procedure: (§1) The complexes described above are intended to replace registered platinum complexes. Platinum complexes constitute the core of the chemotherapy regimen used in ovarian cancer; therefore, we used a cellular model of ovarian cancer, A2780, and primary human dermal fibroblasts as models of non-transformed cells (controls). For the characterization of the complexes, we used an MTT assay after 4 h of treatment for the detection of early toxicity and an SRB assay 48 h after treatment for the detection of cytostasis.
# (§2) An MTT reduction assay was measures the activity of mitochondrial complex I and can be used to detect toxicity. The assay was performed in a manner similar to that described in [84]. Briefly, cells were plated in 96-well plates the day before the assay. Cells were treated with the compounds for 4 h; then, MTT was added to a 0.5 mg/mL final concentration, and cells were incubated at 37 °C in a cell incubator for 40–60 min as a function of the cell line being assessed. Culture medium was removed, the reduced MTT dye was dissolved in dimethyl-sulfoxide, and plates were measured in a plate photometer (Thermo Scientific Multiscan GO spectrophotometer, Waltham, MA, USA) at 540 nm. On each plate, wells were designed to contain vehicle-treated cells. In calculations, the readings for these wells were considered to 1, and all readings were expressed relative to these values.
# (§3) Statistical analysis was performed using version 8.0.1 of GraphPad Prism. Values were tested for normal distribution using the Shapiro–Wilk normality test. Nonlinear regression was performed using the built-in “[Inhibitor] vs. response—Variable slope (four parameters), least square fit” utility of GraphPad, which yielded IC50 and Hill slope values if the sigmoid curves reached a plateau of inhibition and there was no decrease between two subsequent data points or when inhibition was over 90%. In other cases, the percentage of inhibition was taken for the maximum concentration (100 μM).
# [2] = system: A2780 cells; test: SRB binding assay, cytostasis, 48 h treatment; assay type: cell-based; details: for A2780 SRB Max Inhibition: up to 100 μM, ND = not detectable
# Procedure: as §1
# (§4) An SRB assay measures protein content of cells in correlation with the cell number in an assay well and can therefore be used to assess cell proliferation or long-term cytostasis. Cells were seeded in 96-well plates the day before the assay. Cells were treated with the compounds for 48 h. Then medium was removed, and cells were fixed with 10% trichloroacetic acid. Fixed cells were washed in distilled water 3 times, followed by staining with SRB (0.4 m/V% dissolved in 1% acetic acid) for 10 min. Stained cells were washed in 1% acetic acid 5 times; acetic acid was removed, and cells were left to dry. Protein-bound SRB was released by adding 100 μL 10 mM Tris base. Plates were measured in a plate photometer (Thermo Scientific Multiscan GO spectrophotometer, Waltham, MA, USA) at 540 nm. On each plate, wells were designed to contain vehicle-treated cells. In calculations, the readings for these wells were considered to be 1, and all readings were expressed relative to these values.
# as §3
# [3] = target: primary human dermal fibroblasts; test: SRB binding assay, cytostasis, 48 h treatment; assay type: cell-based
# Procedure: as §1, §4, §3
# [4] = Distribution coefficient (logD), n-octanol-PBS; assay type: physicochemical; details: n-octanol-PBS (pH = 7.4) system
# Procedure: The logD values of the newly synthesized complexes were determined according to a procedure described in our previous publications. page 64: Ir-7b +1.17 Rh-7b +1.41 Ru-7c +1.31 Os-7c +1.59 Ir-7c +1.40 Rh-7c +1.13 Ru-7d +1.26 Os-7d +1.42 Ir-7d +1.30 Rh-7d +1.04 Ru-7e +2.22 Os-7e +2.21 Ir-7e +1.39 Rh-7e +1.66 *logD was determined in an n-octanol-PBS (pH = 7.4) system 64 (14 pictures or pasted objects on this page, not shown here)
# [5] = system: Enterococcus faecalis (ATCC29212); test: Broth microdilution MIC, reference strain; assay type: cell-based; details: 24 h, tested range 0.08–40 μM, read-out: MIC E. faecalis ATCC 29,212
# Procedure: (§5) The reference strains of Staphylococcus aureus (ATCC29213) and Enterococcus faecalis (ATCC29212) were purchased from the ATCC (Manassas, VA, USA).
# (§6) Microdilution experiments were performed according to the standards of EUCAST [85]. The bacterial isolates to be tested were grown on Mueller–Hinton agar plates. The inoculum density of bacteria was set at 5.0 × 10^5 CFU/mL in microtiter plates in a final volume of 200 μL Mueller–Hinton broth. The tested concentration range was 0.08–40 μM (10 concentrations, twofold serial dilutions), and a drug-free growth control and an inoculum-free negative control were included. The inoculated plates were incubated for 24 h at 37 °C, then visually assessed. Minimum inhibitory concentration (MIC) was defined as the lowest concentration with a 50%≤ inhibitory effect compared to the growth control. All experiments were performed at least twice in duplicate.
# [6] = system: Staphylococcus aureus (ATCC29213); test: Broth microdilution MIC, reference strain; assay type: cell-based; details: 0.08–40 μM, read-out: MIC S. aureus ATCC 29213
# Procedure: as §5, §6
# [7] = system: vancomycin-resistant Enterococcus (VRE) clinical isolates; test: Broth microdilution MIC, clinical VRE isolates; assay type: cell-based, E. faecium; details: 24 h, 0.08–40 μM
# Procedure: (§7) We used a set of clinical isolates of S. aureus and E. faecium that were collected at the Medical Center of the University of Debrecen (Hungary) between 1 January 2018. and 31 December 2020. The clinical isolates were identified using a Microflex MALDI-TOF mass spectrometer (Bruker, Billerica, MA, USA). The antibiotic susceptibility of the isolates was tested following the European Committee on Antimicrobial Susceptibility Testing (EUCAST) guidelines, which were valid at the time of collection.
# as §6
# [8] = system: methicillin-resistant Staphylococcus aureus (MRSA) clinical isolates; test: Broth microdilution MIC, clinical MRSA isolates; assay type: cell-based; details: 24 h, 0.08–40 μM
# Procedure: as §7, §6
# [9] = system: primary human dermal fibroblasts; test: MTT reduction assay, early toxicity, 4 h treatment; assay type: cell-based; details: up to 100 μM
# Procedure: as §1, §2, §3
# [10] = inhibition at maximum concentration (100 μM) where no plateau, ND = not detectable
# [11] = clinical isolate 25,051 VRE, read-out: MIC 25,051 VRE
# [12] = clinical isolate 25,498 VRE, read-out: MIC 25,498 VRE
# [13] = clinical isolate 27,085 VRE, read-out: MIC 27,085 VRE
# [14] = clinical isolate 20,426 MRSA, read-out: MIC 20,426 MRSA
# [15] = clinical isolate 24,035 MRSA, read-out: MIC 24,035 MRSA
# [16] = clinical isolate 24,268 MRSA, read-out: MIC 24,268 MRSA
# [17] = clinical isolate 24,272 MRSA, read-out: MIC 24,272 MRSA
# [18] = clinical isolate 24,328 MRSA, read-out: MIC 24,328 MRSA
# [19] = clinical isolate 24,408 MRSA, read-out: MIC 24,408 MRSA
pIC50 [2],logD [4],MIC [5],MIC ([6]; 24 h),"MIC [7, 11]","MIC [7, 12]","MIC [7, 13]","MIC [8, 14]","MIC [8, 15]","MIC [8, 16]","MIC [8, 17]","MIC [8, 18]","MIC [8, 19]",Structure (SMILES),"A2780 MTT Max Inhibition [1, 10]",A2780 SRB Max Inhibition [2],Fibroblast MTT Max Inhibition [9],further results
5.77,3.18,20 µM,20 µM,10 µM,10 µM,10 µM,10 µM,20 µM,5 µM,10 µM,10 µM,10 µM,Cc1c(C)c(C)[c-](C)c1C.F[P-](F)(F)(F)(F)F.N[C@@H]1[C@@H](OCc2ccccc2)[C@H](OCc2ccccc2)[C@@H](COCc2ccccc2)O[C@H]1c1ccccn1.[Cl][Ir+2] [Ir-3a],82.71%,>90%,,pIC50 ([3]; read-out: Fibroblast SRB IC50): 4.85
5.42,2.06,20 µM,20 µM,20 µM,20 µM,20 µM,20 µM,20 µM,20 µM,20 µM,20 µM,20 µM,Cc1ccc(C(C)C)cc1.F[P-](F)(F)(F)(F)F.N[C@@H]1[C@@H](OCc2ccccc2)[C@H](OCc2ccccc2)[C@@H](COCc2ccccc2)O[C@H]1c1cnccn1.[Cl][Ru+] [Ru-3d],>90%,>90%,80.31%,pIC50 [1]: 4.71
4.75,1.39,10 µM,20 µM,10 µM,10 µM,10 µM,10 µM,10 µM,10 µM,20 µM,20 µM,10 µM,Cc1ccc(C(C)C)cc1.F[P-](F)(F)(F)(F)F.NC1C(c2cccnn2)OC(COC(=O)c2ccccc2)C(OC(=O)c2ccccc2)C1OC(=O)c1ccccc1.[Cl][Ru+] (mixture of isomers) [Ru-7b],68.22%,>90%,47.04%,
4.25,1.32,10 µM,20 µM,10 µM,10 µM,10 µM,10 µM,10 µM,10 µM,10 µM,20 µM,10 µM,Cc1ccc(C(C)C)cc1.F[P-](F)(F)(F)(F)F.NC1C(c2cccnn2)OC(COC(=O)c2ccccc2)C(OC(=O)c2ccccc2)C1OC(=O)c1ccccc1.[Cl][Os+] (mixture of isomers) [Os-7b],53.39%,>90%,27.22%,
,1.17,40 µM,>40 µM,40 µM,40 µM,40 µM,40 µM,40 µM,40 µM,40 µM,40 µM,40 µM,Cc1c(C)c(C)[c-](C)c1C.F[P-](F)(F)(F)(F)F.NC1C(c2cccnn2)OC(COC(=O)c2ccccc2)C(OC(=O)c2ccccc2)C1OC(=O)c1ccccc1.[Cl][Ir+2] (mixture of isomers) [Ir-7b],53.39%,77.58%,27.22%,
,,,,,,,,,,,,,"N[C@@H]1[C@@H](OC(=O)c2ccccc2)[C@H](OC(=O)c2ccccc2)[C@@H](COC(=O)c2ccccc2)O[C@H]1c1ccccn1 [Complex 7a, 2-(2′-Amino-2′-deoxy-3′,4′,6′-tri-O-benzoyl-β-D-glucopyranosyl)pyridine]",,76.24%,27.02%,"inhibition at 100 µM ([1]; Homo sapiens, inhibition at maximum concentration (100 μM) where no plateau, ND = not detectable, read-out: A2780 MTT Max Inhibition): 18.6%; Fibroblast SRB Max Inhibition ([3]; up to 100 μM, ND = not detectable): 26.00%; MIC ([5]; Enterococcus faecalis): > 40 µM; MIC ([6]; Staphylococcus aureus, ATCC29213, 24 h): > 40 µM; MIC ([7]; Enterococcus, clinical isolate 25,051 VRE, read-out: MIC 25,051 VRE): > 40 µM; MIC ([7]; Enterococcus, clinical isolate 25,498 VRE, read-out: MIC 25,498 VRE): > 40 µM; MIC ([7]; Enterococcus, clinical isolate 27,085 VRE, read-out: MIC 27,085 VRE): > 40 µM; MIC ([8]; Staphylococcus aureus, clinical isolate 20,426 MRSA, read-out: MIC 20,426 MRSA): > 40 µM; MIC ([8]; Staphylococcus aureus, clinical isolate 24,035 MRSA, read-out: MIC 24,035 MRSA): > 40 µM; MIC ([8]; Staphylococcus aureus, clinical isolate 24,268 MRSA, read-out: MIC 24,268 MRSA): > 40 µM; MIC ([8]; Staphylococcus aureus, clinical isolate 24,272 MRSA, read-out: MIC 24,272 MRSA): > 40 µM; MIC ([8]; Staphylococcus aureus, clinical isolate 24,328 MRSA, read-out: MIC 24,328 MRSA): > 40 µM; MIC ([8]; Staphylococcus aureus, clinical isolate 24,408 MRSA, read-out: MIC 24,408 MRSA): > 40 µM"
